This note sets out measurements from patent publication US11807693B2 (priority 2014, dated 2023).

Starred links: 1 amine or outer side, 2 acyl side, 3 side chain; linkers in the order of their positions; H or OH if unused. Non-standard residues stand in square brackets, D forms with d. Residues, ends and D or L forms follow the SMILES beside them. *: point of attachment. dBip = N[C@H](Cc1ccc(-c2ccccc2)cc1)C(=O)O; Oic = O=C(O)[C@@H]1C[C@@H]2CCCC[C@@H]2N1; Phe(4-Cl) = N[C@@H](Cc1ccc(Cl)cc1)C(=O)O; dPhe(4-Cl) = N[C@H](Cc1ccc(Cl)cc1)C(=O)O; Phe(4-I) = N[C@@H](Cc1ccc(I)cc1)C(=O)O; γGlu = O=C(O)[C@H](CCC(=O)[*:2])N[*:1]; 2Nal = N[C@@H](Cc1ccc2ccccc2c1)C(=O)O; NMehArg = CN[C@@H](CCCCNC(=N)N)C(=O)O; d(β3hF) = N[C@@H](CC(=O)O)Cc1ccccc1; NMeR = CN[C@@H](CCCNC(=N)N)C(=O)O; Palmitoyl = CCCCCCCCCCCCCCCC(=O)*; Tridecanoyl = CCCCCCCCCCCCC(=O)*; X1 = O=C(CN(C1CCNCC1)[*:1])[*:2]; hArg = N=C(N)NCCCC[C@H](N)C(=O)O; Cha = N[C@@H](CC1CCCCC1)C(=O)O; NMeL = CN[C@@H](CC(C)C)C(=O)O; αMeL = CC(C)C[C@](C)(N)C(=O)O; β3hN = NC(=O)C[C@H](N)CC(=O)O; Tle = CC(C)(C)[C@H](N)C(=O)O; β3hP = O=C(O)C[C@@H]1CCCN1; Pip = O=C(O)[C@@H]1CCCCN1; Nle = CCCC[C@H](N)C(=O)O; Deg = CCC(N)(CC)C(=O)O; AEEA = NCCOCCOCC(=O)O; Aib = CC(C)(N)C(=O)O

The term EC50 denotes the concentration needed to bring the measured effect to its halfway point.

The first assay deals with T1, rat APJ receptor (Rattus norvegicus, UniProt Q9JHG3).
T1 construct: expressed in transfected cells
T1 sequence (Q9JHG3 1-377): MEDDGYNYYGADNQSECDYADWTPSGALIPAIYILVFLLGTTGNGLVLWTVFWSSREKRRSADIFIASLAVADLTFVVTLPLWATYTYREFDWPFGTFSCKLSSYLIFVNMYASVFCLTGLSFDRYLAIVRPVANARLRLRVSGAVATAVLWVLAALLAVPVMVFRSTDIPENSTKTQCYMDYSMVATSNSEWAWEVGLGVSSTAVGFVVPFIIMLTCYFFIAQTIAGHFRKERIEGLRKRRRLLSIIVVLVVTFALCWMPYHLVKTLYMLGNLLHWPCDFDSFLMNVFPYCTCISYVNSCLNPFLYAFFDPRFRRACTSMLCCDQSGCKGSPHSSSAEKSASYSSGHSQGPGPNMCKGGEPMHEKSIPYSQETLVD
Description: [35S] GTPγS assay, rat APJ receptor. The format is biochemical. The note with it: Table 16, read-out: EC50 Rat APJ Receptor. The procedure: The membranes were incubated with modified peptides in the assay buffer. […] Bound [^35S] GTPγS was separated from free radiolabel by filtration. The filter bound radioactivity was determined by liquid scintillation counting.
Turning to `CCCCCCCCCCCCC(=O)N[C@@H](CCC(=O)NCCOCCOCC(=O)NCCOCCOCC(=O)N[C@@H](CCC(N)=O)C(=O)N[C@@H](CCCNC(=N)N)C(=O)N1CCC[C@H]1C(=O)N(C)[C@@H](CCCNC(=N)N)C(=O)N[C@H](C(=O)N[C@@H](CO)C(=O)N[C@@H](Cc1c[nH]cn1)C(=O)N[C@@H](CCCCN)C(=O)NCC(=O)N1[C@H](C(=O)N[C@@H](CCCC)C(=O)N2CCC[C@H]2C(=O)N[C@@H](Cc2ccc(Cl)cc2)C(=O)O)C[C@@H]2CCCC[C@@H]21)C(C)(C)C)C(=O)O` [compound 439] ({Tridecanoyl-γGlu-AEEA-AEEA}-QRP[NMeR][Tle]SHKG[Oic][Nle]P[Phe(4-Cl)]-OH), the EC50 worked out at 3.21 nM.
In the case of `CCCCCCCCCCCCC(=O)N[C@@H](CCC(=O)NCCOCCOCC(=O)NCCOCCOCC(=O)N[C@@H](CCC(N)=O)C(=O)N[C@H](CCCNC(=N)N)C(=O)N1CCC[C@H]1C(=O)N(C)[C@@H](CCCCNC(=N)N)C(=O)N[C@@H](CC1CCCCC1)C(=O)N[C@@H](CO)C(=O)N[C@@H](Cc1c[nH]cn1)C(=O)N[C@@H](CCCCN)C(=O)NCC(=O)N1CCC[C@H]1C(=O)N[C@@H](CCCC)C(=O)N1CCC[C@H]1C(=O)N[C@@H](Cc1ccc(Cl)cc1)C(=O)O)C(=O)O` [compound 435] ({Tridecanoyl-γGlu-AEEA-AEEA}-Q[dR]P[NMehArg][Cha]SHKGP[Nle]P[Phe(4-Cl)]-OH), the EC50 is 1.15 nM.
In the case of `CCCCCCCCCCCCC(=O)N[C@@H](CCC(=O)NCCOCCOCC(=O)NCCOCCOCC(=O)N[C@@H](CCC(N)=O)C(=O)N[C@@H](CCCNC(=N)N)C(=O)N1CCC[C@H]1C(=O)N[C@@H](CCC(N)=O)C(=O)N[C@@H](CC(C)C)C(=O)N[C@@H](CO)C(=O)N[C@@H](Cc1c[nH]cn1)C(=O)N[C@@H](CCCCN)C(=O)NCC(=O)N1CCC[C@H]1C(=O)N[C@@H](CCCC)C(=O)N1CCC[C@H]1C(=O)N[C@@H](Cc1ccc(Cl)cc1)C(=O)O)C(=O)O` [compound 465] ({Tridecanoyl-γGlu-AEEA-AEEA}-QRPQLSHKGP[Nle]P[Phe(4-Cl)]-OH), the EC50 is 0.175 nM.
Still for that read-out and setting: in the case of `CCCCCCCCCCCCC(=O)N[C@@H](CCC(=O)NCCOCCOCC(=O)NCCOCCOCC(=O)N[C@@H](CCC(N)=O)C(=O)N[C@@H](CCCNC(=N)N)C(=O)N1CCC[C@H]1C(=O)N(C)[C@@H](CCCNC(=N)N)C(=O)N[C@@H](CC1CCCCC1)C(=O)N[C@@H](CO)C(=O)N[C@@H](Cc1c[nH]cn1)C(=O)N[C@@H](CCCCN)C(=O)NCC(=O)N1CCC[C@H]1CC(=O)N[C@@H](CCCC)C(=O)N1CCC[C@H]1C(=O)N[C@@H](Cc1ccc(Cl)cc1)C(=O)O)C(=O)O` [compound 417] ({Tridecanoyl-γGlu-AEEA-AEEA}-QRP[NMeR][Cha]SHKG[β3hP][Nle]P[Phe(4-Cl)]-OH) it was 8.1 nM; in that of `CCCCCCCCCCCCC(=O)N[C@@H](CCC(=O)NCCOCCOCC(=O)NCCOCCOCC(=O)N[C@@H](CCC(N)=O)C(=O)N[C@@H](CCCNC(=N)N)C(=O)N1CCC[C@H]1C(=O)N(C)[C@@H](CCCNC(=N)N)C(=O)N(C)[C@@H](CC(C)C)C(=O)N[C@@H](CO)C(=O)N[C@@H](Cc1c[nH]cn1)C(=O)N[C@@H](CCCCN)C(=O)NCC(=O)N1CCC[C@H]1C(=O)N[C@@H](CCCC)C(=O)N1CCC[C@H]1C(=O)N[C@@H](Cc1ccc(Cl)cc1)C(=O)O)C(=O)O` [compound 459], 0.23 nM; in that of `CCCCCCCCCCCCC(=O)N[C@@H](CCC(=O)NCCOCCOCC(=O)NCCOCCOCC(=O)N[C@H](CCC(N)=O)C(=O)N[C@@H](CCCCNC(=N)N)C(=O)N1CCC[C@H]1C(=O)N[C@H](CCCNC(=N)N)C(=O)N[C@H](C(=O)N[C@@H](CO)C(=O)N[C@@H](Cc1c[nH]cn1)C(=O)N[C@@H](CCCCN)C(=O)NCC(=O)N1[C@H](C(=O)N[C@@H](CCCC)C(=O)N2CCC[C@H]2C(=O)N[C@@H](Cc2ccc(Cl)cc2)C(=O)O)C[C@@H]2CCCC[C@@H]21)C(C)(C)C)C(=O)O` [compound 433] ({Tridecanoyl-γGlu-AEEA-AEEA}-[dQ][hArg]P[dR][Tle]SHKG[Oic][Nle]P[Phe(4-Cl)]-OH), 19.8 nM.
For the compound `CCCCCCCCCCCCC(=O)N[C@@H](CCC(=O)NCCOCCOCC(=O)NCCOCCOCC(=O)N[C@@H](CCC(N)=O)C(=O)N[C@@H](CCCNC(=N)N)C(=O)N1CCC[C@H]1C(=O)N[C@@H](CCCCNC(=N)N)C(=O)N[C@@](C)(CC(C)C)C(=O)N[C@@H](CO)C(=O)N[C@@H](Cc1c[nH]cn1)C(=O)N[C@@H](CCCCN)C(=O)NCC(=O)N1CCC[C@H]1C(=O)N[C@@H](CCCC)C(=O)N1CCC[C@H]1C(=O)N[C@@H](Cc1ccc2ccccc2c1)C(=O)O)C(=O)O` [compound 404] ({Tridecanoyl-γGlu-AEEA-AEEA}-QRP[hArg][αMeL]SHKGP[Nle]P[2Nal]-OH), the EC50 amounted to 0.361 nM.
Regarding `CCCCCCCCCCCCC(=O)N[C@@H](CCC(=O)NCCOCCOCC(=O)NCCOCCOCC(=O)N[C@H](CCC(N)=O)C(=O)N[C@@H](CCCCNC(=N)N)C(=O)N1CCC[C@H]1C(=O)N[C@H](CCCNC(=N)N)C(=O)N[C@@H](CC1CCCCC1)C(=O)N[C@@H](CO)C(=O)NC(CC)(CC)C(=O)N[C@@H](CCCCN)C(=O)NCC(=O)N1[C@H](C(=O)N[C@@H](CCCC)C(=O)N2CCC[C@H]2C(=O)N[C@@H](Cc2ccc(Cl)cc2)C(=O)O)C[C@@H]2CCCC[C@@H]21)C(=O)O` [compound 451] ({Tridecanoyl-γGlu-AEEA-AEEA}-[dQ][hArg]P[dR][Cha]S[Deg]KG[Oic][Nle]P[Phe(4-Cl)]-OH), the concentration giving a half-maximal response (EC50) stood at 31.7 nM.

The assay is the same for the next values; noted with them: rat APJ receptor, read-out: EC50 Rat APJ Receptor.
As to `CCCCCCCCCCCCCCCC(=O)N[C@@H](CCC(=O)NCCOCCOCC(=O)NCCOCCOCC(=O)N[C@H](CCC(N)=O)C(=O)N(CC(=O)N1CCC[C@H]1C(=O)N(C)[C@@H](CCCNC(=N)N)C(=O)N[C@@H](CC1CCCCC1)C(=O)N[C@@H](CO)C(=O)N[C@@H](Cc1c[nH]cn1)C(=O)N[C@@H](CCCCN)C(=O)NCC(=O)N1CCCC[C@H]1C(=O)N[C@@H](CCCC)C(=O)NC(C)(C)C(=O)N[C@@H](Cc1ccc(Cl)cc1)C(=O)O)C1CCNCC1)C(=O)O` [compound 646] ({Palmitoyl-γGlu-AEEA-AEEA}-[dQ][X1]P[NMeR][Cha]SHKG[Pip][Nle][Aib][Phe(4-Cl)]-OH), the EC50 came out at 0.994 nM.
For `CCCCCCCCCCCCC(=O)N[C@@H](CCC(=O)NCCOCCOCC(=O)NCCOCCOCC(=O)N[C@@H](CC(N)=O)CC(=O)N[C@@H](CCCCNC(=N)N)C(=O)N1CCC[C@H]1C(=O)N(C)[C@@H](CCCNC(=N)N)C(=O)N[C@@H](CC1CCCCC1)C(=O)N[C@@H](CO)C(=O)N[C@@H](Cc1c[nH]cn1)C(=O)N[C@@H](CCCCN)C(=O)NCC(=O)N1[C@H](C(=O)N[C@@H](CCCC)C(=O)N2CCC[C@H]2C(=O)N[C@H](Cc2ccc(Cl)cc2)C(=O)O)C[C@@H]2CCCC[C@@H]21)C(=O)O` [compound 299] ({Tridecanoyl-γGlu-AEEA-AEEA}-[β3hN][hArg]P[NMeR][Cha]SHKG[Oic][Nle]P[dPhe(4-Cl)]-OH), the EC50 was found to be 14.6 nM.
Same read-out and setting: the value for `CCCCCCCCCCCCCCCC(=O)N[C@@H](CCC(=O)NCCOCCOCC(=O)NCCOCCOCC(=O)N[C@H](CCC(N)=O)C(=O)N[C@@H](CCCNC(=N)N)C(=O)N1CCC[C@H]1C(=O)N(C)[C@@H](CCCNC(=N)N)C(=O)N[C@@H](CC1CCCCC1)C(=O)N[C@@H](CO)C(=O)N[C@@H](Cc1c[nH]cn1)C(=O)N[C@@H](CCCCN)C(=O)NCC(=O)N1CCCC[C@H]1C(=O)N[C@@H](CCCC)C(=O)N[C@@H](CC(=O)O)Cc1ccccc1)C(=O)O` [compound 574] ({Palmitoyl-γGlu-AEEA-AEEA}-[dQ]RP[NMeR][Cha]SHKG[Pip][Nle][d(β3hF)]-OH) was 2.83 nM; that for `CCCCCC(=O)N[C@@H](CCC(=O)NCCOCCOCC(=O)NCCOCCOCC(=O)N[C@@H](CCC(N)=O)C(=O)N[C@@H](CCCNC(=N)N)C(=O)N1CCC[C@H]1C(=O)N(C)[C@@H](CCCNC(=N)N)C(=O)N[C@@H](CC(C)C)C(=O)N[C@@H](CO)C(=O)N[C@@H](Cc1c[nH]cn1)C(=O)N[C@@H](CCCCN)C(=O)NCC(=O)N1CCC[C@H]1C(=O)N[C@@H](CCCC)C(=O)N1CCC[C@H]1C(=O)N[C@@H](Cc1ccc(Cl)cc1)C(=O)O)C(=O)O` [compound 492] was 0.147 nM; that for `CCCCCCCCCCCCC(=O)N[C@@H](CCC(=O)NCCOCCOCC(=O)NCCOCCOCC(=O)NCCOCCOCC(=O)NCCOCCOCC(=O)NCCOCCOCC(=O)NCCOCCOCC(=O)N[C@@H](CCC(N)=O)C(=O)N[C@@H](CCCNC(=N)N)C(=O)N1CCC[C@H]1C(=O)N(C)[C@@H](CCCNC(=N)N)C(=O)N[C@@H](CC(C)C)C(=O)N[C@@H](CO)C(=O)N[C@@H](Cc1c[nH]cn1)C(=O)N[C@@H](CCCCN)C(=O)NCC(=O)N1CCC[C@H]1C(=O)N[C@@H](CCCC)C(=O)N1CCC[C@H]1C(=O)N[C@@H](Cc1ccc(Cl)cc1)C(=O)O)C(=O)O` [compound 398] was 0.116 nM.
As to `CCCCCCCCCCCCC(=O)N[C@@H](CCC(=O)NCCOCCOCC(=O)NCCOCCOCC(=O)N[C@@H](CCCCNC(=N)N)C(=O)N[C@H](CCCNC(=N)N)C(=O)N[C@@H](CCC(N)=O)C(=O)N[C@@H](CCCCNC(=N)N)C(=O)N1CCC[C@H]1C(=O)N[C@H](CCCNC(=N)N)C(=O)N(C)[C@@H](CC(C)C)C(=O)N[C@@H](C)C(=O)N[C@@H](Cc1c[nH]cn1)C(=O)N[C@@H](CCCC)C(=O)NCC(=O)N1[C@H](C(=O)N[C@@H](Cc2ccc(I)cc2)C(=O)N2CCC[C@H]2C(=O)N[C@H](Cc2ccc(-c3ccccc3)cc2)C(=O)O)C[C@@H]2CCCC[C@@H]21)C(=O)O` [compound 318] ({Tridecanoyl-γGlu-AEEA-AEEA}-[hArg][dR]Q[hArg]P[dR][NMeL]AH[Nle]G[Oic][Phe(4-I)]P[dBip]-OH), the concentration giving a half-maximal response (EC50) turned out to be 46 nM.
